Experimental findings from patent US9072695B2, “Aromatase activator” (Kao Corporation, priority 2011, dated 2015) are described below.

The target of this test is T1, aromatase (Homo sapiens, UniProt P11511).
T1 construct: host or cells: human skin fibroblasts (HDF1616)
T1 sequence (P11511 1-503): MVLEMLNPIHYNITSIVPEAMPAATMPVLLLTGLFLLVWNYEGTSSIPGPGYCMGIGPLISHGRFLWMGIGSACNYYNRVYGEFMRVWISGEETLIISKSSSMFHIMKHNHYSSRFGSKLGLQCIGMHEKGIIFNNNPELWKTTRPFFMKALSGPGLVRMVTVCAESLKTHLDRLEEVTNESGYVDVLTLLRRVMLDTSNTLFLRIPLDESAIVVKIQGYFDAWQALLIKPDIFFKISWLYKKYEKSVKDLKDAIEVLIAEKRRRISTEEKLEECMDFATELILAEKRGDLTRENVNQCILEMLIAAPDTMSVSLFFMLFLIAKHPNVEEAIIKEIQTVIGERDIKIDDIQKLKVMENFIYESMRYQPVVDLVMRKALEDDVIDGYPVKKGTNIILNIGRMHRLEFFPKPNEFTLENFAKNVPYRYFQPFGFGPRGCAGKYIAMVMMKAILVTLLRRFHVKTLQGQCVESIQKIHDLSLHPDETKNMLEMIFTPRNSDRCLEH
Nature of the test: Aromatase activation effect in fibroblasts derived from human skin (3H2O release from 1β-3H-androst-4-ene-3,17-dione). Format: cell-based. As to conditions: for Aromatase activity: fibroblasts (HDF1616) derived from human skin, amount added 4.65 × 10^−6 mol/L, control 6.85; for Aromatase activation effect (in words): fibroblasts derived from human skin, 4.65×10^−6 mol/L, compared with control (no addition). As to the method: The aromatase activation effect of the compounds 1 and 2 prepared in Production Example 1 was examined with reference to Stampfer M J, Willett W C, Colditz G A, Rosner B, Speizer F E and Hennenkens C H, N. Engl. J. Med., 313, 1044-1049, 1985.
Fibroblasts (HDF1616: KURABO) derived from human skin were planted in a 24-well cell culture plate (FALCON) to culture until it became confluent. The medium was removed and 900 μL of a serum-free medium was added to the wells to culture for 24 hr. At this time, the compound 1 or 2 prepared using an aqueous 95% ethanol solution such that the final concentration was 4.65×10^−6 mol/L was added to the wells. Also, a sample in which an aqueous 95% ethanol solution was added and a sample (no addition) in which no material was added were prepared as controls.
1β-3H-androst-4-ene-3,17-dione (Perkin Elmer) which was the substrate of aromatase was added in the serum-free medium such that the concentration was 37 kBq/100 μL and added in an amount of 100 μL in each well to culture for 24 hr. 900 μL of the culture product was taken, in a 2 mL tube from one well and 1 mL of CHCl3 was added to the cultured product, which was then stirred vigorously. The cultured product was centrifuged at 15,000 rpm for 10 min to transfer the upper layer (water layer) to another tube. 200 μL of Charcoal/Dextran (which is one obtained by suspending 5 g of Charcoal, dextran coated (SIGMA) in 50 mL of H2O) was added to the upper layer, which was fairly mixed and then allowed to stand at ambient temperature for 30 min. The mixture was centrifuged at 15,000 rpm for 10 min and the supernatant was transferred to a new tube. 1 mL of […] was added to the supernatant, which was then vigorously stirred and centrifuged at 15,000 rpm for 10 min and the upper layer (water layer) was added to 5 mL of Ultima Gold (Perkin Elmer) to measure the radioactivity of ^3H by a liquid scintillation counter (Perkin Elmer Tricarb 2550). The same serum-free medium containing no cell was incubated for the same hours without adding a drug, followed by the same procedures to measure the radioactivity of ^3H and the radioactivity was subtracted from the above measured radioactivity.
1β-3H-androst-4-ene-3,17-dione releases ^3H2O by an aromatase reaction and is converted into estrogen having no radioactivity. In this experimental method, the radioactivity of released ^3H2O is detected, showing that the higher the radioactivity is, the higher the aromatase activity is.

On to `CC1=CC[C@H](C)C(C)(C)[C@@H]1CC/C(C)=C/CC[C@@]1(C)[C@H](CCCO)/C(=C(/C)C=O)CC[C@]1(C)O` [Compound 1], for which the Aromatase activity is given as 21.68 fmol/day/well and the “Aromatase activation effect (in words)” value is given as “activated aromatase existing in cells”.

For `C=C1CC[C@H](C)C(C)(C)[C@@H]1CC/C(C)=C/CC[C@@]1(C)[C@H](CCCO)/C(=C(/C)C=O)CC[C@]1(C)O` [Compound 2], the Aromatase activity is on record as 22.34 fmol/day/well and the “Aromatase activation effect (in words)” value is “activated aromatase existing in cells”.
